Measurements from patent publication US10618903B2, “Heteroaryl substituted aminopyridine compounds” (BRISTOL-MYERS SQUIBB COMPANY, priority 2015, dated 2020).

Assays:
[1] = system: IL-6 levels in human whole blood stimulated with a TLR2 agonist; experiment: IRAK4 Whole Blood Assay (lipoteichoic acid/TLR2-stimulated IL-6); type: cell-based; settings: lipoteichoic acid 10 μg/mL, IL-6 readout
Method: Human whole blood containing the anti-coagulant ACD-A was plated in 384-well plate (25 μL/well) and incubated with compounds for 60 minutes at 37° C. in a 5% CO2 incubator. The blood was stimulated with a TLR2 agonist, 10 μg/mL final concentration of lipoteichoic acid (Invivogen, San Diego, Calif.) in 25 μL RPMI (Gibco) for 5 hours in a 5% CO2 incubator. At the end of the incubation, plates were centrifuged at 2300 rpm for 5 minutes. Supernatants were harvested and analyzed for IL-6 levels by Flow Cytometry beads assay (BD Biosciences, San Jose, Calif.).

[2] = target: IRAK4 (Homo sapiens (Human), UniProt Q9NWZ3); experiment: IRAK4 Inhibition Assay; type: biochemical; settings: ATP 500 μM; IRAK4 0.6 nM
Method: The assays were performed in U-bottom 384-well plates. The final assay volume was 30 μL prepared from 15 μL additions of enzyme and substrates (fluoresceinated peptide and ATP) and test compounds in assay buffer (20 mM HEPES pH 7.2, 10 mM MgCl2, 0.015% Brij 35 and 4 mM DTT). The reaction was initiated by the combination of IRAK4 with substrates and test compounds. The reaction mixture was incubated at room temperature for 60 min. and terminated by adding 45 μL of 35 mM EDTA to each sample. The reaction mixture was analyzed on the Caliper LABCHIP® 3000 (Caliper, Hopkinton, Mass.) by electrophoretic separation of the fluorescent substrate and phosphorylated product. Inhibition data were calculated by comparison to no enzyme control reactions for 100% inhibition and vehicle-only reactions for 0% inhibition. The final concentrations of reagents in the assays are ATP, 500 μM; FL-IPTSPITTTYFFFKKK peptide 1.5 μM; IRAK4, 0.6 nM; and DMSO, 1.6%.

IRAK4, sequence (Q9NWZ3 whole entry): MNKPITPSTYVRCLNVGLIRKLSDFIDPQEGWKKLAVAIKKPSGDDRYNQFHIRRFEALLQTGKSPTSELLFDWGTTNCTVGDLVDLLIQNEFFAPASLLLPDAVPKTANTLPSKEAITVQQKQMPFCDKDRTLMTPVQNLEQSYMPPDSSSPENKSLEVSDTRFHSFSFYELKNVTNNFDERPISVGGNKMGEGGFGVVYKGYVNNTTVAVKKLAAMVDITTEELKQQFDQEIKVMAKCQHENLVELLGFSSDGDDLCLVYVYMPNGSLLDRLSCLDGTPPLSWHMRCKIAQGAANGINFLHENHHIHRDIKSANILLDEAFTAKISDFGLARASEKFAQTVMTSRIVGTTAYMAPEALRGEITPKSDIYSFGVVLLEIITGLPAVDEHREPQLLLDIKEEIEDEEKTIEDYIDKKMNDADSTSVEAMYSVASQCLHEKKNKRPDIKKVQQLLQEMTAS

| SMILES | EC50 ([1]; Homo sapiens) [nM] | IC50 [2] [nM] | EC50 [1] [nM] |
| --- | --- | --- | --- |
| CC(=O)N[C@H]1CC[C@H](NC(=O)c2cnc(-c3cnc4cc(Cl)cnn34)cc2NC(C)C)CC1 [Example 219, N-((1r,4r)-4-acetamidocyclohexyl)-6-(7-chloroimidazo[1,2-b]pyridazin-3-yl)-4-(isopropylamino)nicotinamide] | 450 | 18 |  |
| CC(C)(O)[C@H](F)CNC(=O)c1cnc(-c2cnn3cc(Cl)cnc23)cc1NCC1(O)CCC1 [Example 51, (R)-6-(6-chloropyrazolo[1,5-a]pyrimidin-3-yl)-N-(2-fluoro-3-hydroxy-3-methylbutyl)-4-(((1-hydroxycyclobutyl)methyl)amino)nicotinamide] | 1250 | 10 |  |
| COC(C)(C)[C@H]1CC[C@H](NC(=O)c2cnc(-c3cnc4cc(Cl)cnn34)cc2NC2COC2)CC1 [Example 191, 6-(7-chloroimidazo[1,2-b]pyridazin-3-yl)-N-((1r,4r)-4-(2-methoxypropan-2-yl)cyclohexyl)-4-(oxetan-3-ylamino)nicotinamide] | 630 |  |  |
| CC(=O)N[C@H]1CC[C@H](NC(=O)c2cnc(-c3cnc4cc(C#N)cnn34)cc2NC(C)C)CC1 [Example 220, N-((1r,4r)-4-acetamidocyclohexyl)-6-(7-cyanoimidazo[1,2-b]pyridazin-3-yl)-4-(isopropylamino)nicotinamide] | 340 | 16 |  |
| COC1CC(Nc2cc(-c3cnn4cc(Cl)cnc34)ncc2C(=O)NC[C@@H](F)C(C)(C)O)CC1(F)F (single isomer, unassigned) [Example 13] | 4450 | 7 |  |
| CC(C)(O)[C@H](F)CNC(=O)c1cnc(-c2cnn3cc(Cl)cnc23)cc1Nc1ccn(CC(F)F)c1 [Example 228, (R)-6-(6-chloropyrazolo[1,5-a]pyrimidin-3-yl)-4-((1-(2,2-difluoroethyl)-1H-pyrrol-3-yl)amino)-N-(2-fluoro-3-hydroxy-3-methylbutyl)nicotinamide] | 250 |  |  |
| COC(=O)N[C@H]1CC[C@H](NC(=O)c2cnc(-c3cnn4cc(Cl)cnc34)cc2Nc2cnn(C)c2)CC1 [Example 257, methyl ((1r,4r)-4-(6-(6-chloropyrazolo[1,5-a]pyrimidin-3-yl)-4-((1-methyl-1H-pyrazol-4-yl)amino)nicotinamido)cyclohexyl)carbamate] | 710 | 14 |  |
| CC(C)OC1CC(Nc2cc(-c3cnn4cc(Cl)cnc34)ncc2C(=O)NC[C@@H](F)C(C)(C)O)CC1(F)F (single isomer, unassigned) [Example 16] |  | 6 | 1090 |
| CC(C)(O)[C@H](F)CNC(=O)c1cnc(-c2cnc3cc(C#N)cnn23)cc1N[C@@H]1CCN(c2ncc(F)cn2)C1 [Example 288, 6-(7-cyanoimidazo[1,2-b]pyridazin-3-yl)-N—((R)-2-fluoro-3-hydroxy-3-methylbutyl)-4-(((R)-1-(5-fluoropyrimidin-2-yl)pyrrolidin-3-yl)amino)nicotinamide] | 390 | 9 |  |
| CC(C)(C)Nc1cc(-c2cnc3cc(C#N)cnn23)ncc1C(=O)NC[C@@H](F)C(C)(C)O [Example 187, (R)-4-(tert-butylamino)-6-(7-cyanoimidazo[1,2-b]pyridazin-3-yl)-N-(2-fluoro-3-hydroxy-3-methylbutyl)nicotinamide] | 200 |  |  |
| CC(C)(O)[C@H](F)CNC(=O)c1cnc(-c2cnn3cc(C#N)cnc23)cc1Nc1ccn(CC(F)F)c1 [Example 225, (R)-6-(6-cyanopyrazolo[1,5-a]pyrimidin-3-yl)-4-((1-(2,2-difluoroethyl)-1H-pyrrol-3-yl)amino)-N-(2-fluoro-3-hydroxy-3-methylbutyl)nicotinamide] | 80 |  |  |
| CC(C)Nc1cc(-c2cnc3ccc(N4CC[C@@H](O)C4)nn23)ncc1C(=O)NC[C@@H](F)C(C)(C)O [Example 152, N—((R)-2-fluoro-3-hydroxy-3-methylbutyl)-6-(6-((R)-3-hydroxypyrrolidin-1-yl)imidazo[1,2-b]pyridazin-3-yl)-4-(isopropylamino)nicotinamide] |  | 29 |  |
| CC(C)(O)[C@H](F)CNC(=O)c1cnc(-c2cnn3cc(C#N)cnc23)cc1Nc1ccc(C(N)=O)cc1 [Example 112, (R)-4-((4-carbamoylphenyl)amino)-6-(6-cyanopyrazolo[1,5-a]pyrimidin-3-yl)-N-(2-fluoro-3-hydroxy-3-methylbutyl)nicotinamide] | 820 |  |  |
| CC(C)(O)[C@H](F)CNC(=O)c1cnc(-c2cnn3cccnc23)cc1NC1CCOCC1 [Example 126, (R)—N-(2-fluoro-3-hydroxy-3-methylbutyl)-6-(pyrazolo[1,5-a]pyrimidin-3-yl)-4-((tetrahydro-2H-pyran-4-yl)amino)nicotinamide] |  | 22 |  |
| CC(C)(O)[C@H](F)CNC(=O)c1cnc(-c2cnn3cc(Cl)cnc23)cc1N[C@@H]1COC[C@H]1O [Example 42, 6-(6-chloropyrazolo[1,5-a]pyrimidin-3-yl)-N—((R)-2-fluoro-3-hydroxy-3-methylbutyl)-4-(((3R,4S)-4-hydroxytetrahydrofuran-3-yl)amino) nicotinamide] |  | 8 |  |

More lines, in order of falling IC50 [2], values ahead:

| EC50 ([1]; Homo sapiens) [nM] | IC50 [2] [nM] | EC50 [1] [nM] | SMILES |
| --- | --- | --- | --- |
| 380 | 6 |  | CC(C)(O)[C@H](F)CNC(=O)c1cnc(-c2cnn3cc(Cl)cnc23)cc1NC1CCCOC1 (single isomer, unassigned) [Example 3] |
| 640 | 6 |  | CO[C@H]1CC[C@H](Nc2cc(-c3cnc4cc(C#N)cnn34)ncc2C(=O)NC[C@@H](F)C(C)(C)O)CC1 [Example 196, 6-(7-cyanoimidazo[1,2-b]pyridazin-3-yl)-N—((R)-2-fluoro-3-hydroxy-3-methylbutyl)-4-(((1r,4R)-4-methoxycyclohexyl)amino) nicotinamide] |
| 570 | 6 |  | CC(C)n1cc(Nc2cc(-c3cnn4cc(Cl)cnc34)ncc2C(=O)NC[C@@H](F)C(C)(C)O)cn1 [Example 233, (R)-6-(6-chloropyrazolo[1,5-a]pyrimidin-3-yl)-N-(2-fluoro-3-hydroxy-3-methylbutyl)-4-((1-isopropyl-1H-pyrazol-4-yl)amino)nicotinamide] |
| 550 | 5 |  | CC(=O)N[C@H](C)CCNC(=O)c1cnc(-c2cnn3cc(Cl)cnc23)cc1NC(C)C [Example 167, (R)—N-(3-acetamidobutyl)-6-(6-chloropyrazolo[1,5-a]pyrimidin-3-yl)-4-(isopropylamino) nicotinamide] |
|  | 4 |  | CC(C)(O)[C@H](F)CNC(=O)c1cnc(-c2cnn3cc(Cl)cnc23)cc1NC1CCC(F)C1 (stereo partly drawn) [Example 86, 6-(6-chloropyrazolo[1,5-a]pyrimidin-3-yl)-N—((R)-2-fluoro-3-hydroxy-3-methylbutyl)-4-((3-fluorocyclopentyl)amino)nicotinamide] |
| 900 | 3 |  | CC(C)(O)[C@H](F)CNC(=O)c1cnc(-c2cnn3cc(C#N)cnc23)cc1Nc1cccc(C(N)=O)c1 [Example 111, (R)-4-((3-carbamoylphenyl)amino)-6-(6-cyanopyrazolo[1,5-a]pyrimidin-3-yl)-N-(2-fluoro-3-hydroxy-3-methylbutyl)nicotinamide] |
| 480 | 3 |  | CC(C)(CO)Nc1cc(-c2cnn3cc(C#N)cnc23)ncc1C(=O)NC[C@@H](F)C(C)(C)O [Example 114, (R)-6-(6-cyanopyrazolo[1,5-a]pyrimidin-3-yl)-N-(2-fluoro-3-hydroxy-3-methylbutyl)-4-((1-hydroxy-2-methylpropan-2-yl)amino)nicotinamide] |
| 2340 | 3 |  | [2H]C([2H])([2H])OC(C)(C)[C@H](F)CNC(=O)c1cnc(-c2cnn3cc(Cl)cnc23)cc1NC(C)C [Example 57, (R)-6-(6-chloropyrazolo[1,5-a]pyrimidin-3-yl)-N-(2-fluoro-3-trideuteromethoxy-3-methylbutyl)-4-(isopropylamino)nicotinamide] |
| 980 | 3 |  | CC(C)Nc1cc(-c2cnc3cc(F)cnn23)ncc1C(=O)NC[C@H](F)C(C)(C)O [Example 212, (S)—N-(2-fluoro-3-hydroxy-3-methylbutyl)-6-(7-fluoroimidazo[1,2-b]pyridazin-3-yl)-4-(isopropylamino)nicotinamide] |
| 890 | 2 |  | CC(C)Nc1cc(-c2cnc3cc(C#N)cnn23)ncc1C(=O)NCCc1cccs1 [Example 213, 6-(7-cyanoimidazo[1,2-b]pyridazin-3-yl)-4-(isopropylamino)-N-(2-(thiophen-2-yl)ethyl)nicotinamide] |
|  | 2 |  | CC(C)(O)[C@H](F)CNC(=O)c1cnc(-c2cnn3cc(Cl)cnc23)cc1NC1CCC(F)C1 (stereo partly drawn) [Example 85, 6-(6-chloropyrazolo[1,5-a]pyrimidin-3-yl)-N—((R)-2-fluoro-3-hydroxy-3-methylbutyl)-4-((3-fluorocyclopentyl)amino)nicotinamide] |
| 440 | 1 |  | CC(C)(O)[C@H](F)CNC(=O)c1cnc(-c2cnc3cc(Cl)cnn23)cc1Nc1cnn(CC(F)(F)F)c1 [Example 275, (R)-6-(7-chloroimidazo[1,2-b]pyridazin-3-yl)-N-(2-fluoro-3-hydroxy-3-methylbutyl)-4-((1-(2,2,2-trifluoroethyl)-1H-pyrazol-4-yl)amino)nicotinamide] |
